Converted amounts (≈) assume the structure as drawn.
System: A. baumannii isolates
Assay: MICs (minimum inhibitory concentrations) for susceptibility to known antibiotics, British Society for Antimicrobial Chemotherapy guidelines
Assay type: cell-based, Acinetobacter baumannii
Conditions: 20 clinical isolates from diabetic patients; for MIC: Acinetobacter baumannii
Excerpt: All twenty isolates were further tested for MICs (minimum inhibitory concentrations) for susceptibility to several known antibiotics using the British Society for Antimicrobial Chemotherapy guidelines.

| Molecule | % resistance | No. of resistant isolates | susceptibility/resistance of the isolates in words | MIC | MIC range |
| --- | --- | --- | --- | --- | --- |
| CC1(C)[C@H](C(=O)O)N2C(=O)C[C@H]2S1(=O)=O [Sulbactam] | 100% | 20 | highly resistant | – | – |
| Cc1onc(-c2ccccc2)c1C(=O)N[C@@H]1C(=O)N2[C@@H]1SC(C)(C)[C@@H]2C(=O)O [Oxacillin] | 100% | 20 | highly resistant | > 128 µg/mL | – |
| C[C@@H](O)[C@H]1C(=O)N2C(C(=O)O)=C(SCCN=CN)C[C@H]12 [Imipenem] | 0% | 0 | – | 0.25 to 2 µg/mL (≈ 0.835 to 6.68 µM) | – |
| CCn1cc(C(=O)O)c(=O)c2ccc(C)nc21 [Nalidixic Acid] | 75% | 15 | majority was also resistant | – | – |
| Colistin | 0% | 0 | susceptible | – | 0.25 to 0.5 µg/mL |
| CO[C@H]1/C=C/O[C@@]2(C)Oc3c(C)c(O)c4c(O)c(c(/C=N/N5CCN(C)CC5)c(O)c4c3C2=O)NC(=O)/C(C)=C\C=C\[C@H](C)[C@H](O)[C@@H](C)[C@@H](O)[C@@H](C)[C@H](OC(C)=O)[C@@H]1C [Rifampicin] | 80% | 16 | – | 4 to 32 µg/mL (≈ 4.86 to 38.9 µM) | – |
| C[C@@H](O)[C@H]1C(=O)N2C(C(=O)O)=C(S[C@@H]3CN[C@H](C(=O)N(C)C)C3)[C@H](C)[C@H]12 [Meropenem] | 20% | 4 | all but four isolates (which had low-level resistance) were susceptible | 4 to 8 µg/mL (≈ 10.4 to 20.9 µM) | – |
| C[C@@H](O)[C@H]1C(=O)N2C(C(=O)O)=C(S[C@@H]3CN[C@H](C(=O)Nc4cccc(C(=O)O)c4)C3)[C@H](C)[C@H]12 [Ertapenem] | 100% | 20 | highly resistant | 4 to 64 µg/mL (≈ 8.41 to 135 µM) | – |
| Gentamicin | 20% | 4 | majority was also resistant | – | – |
| CC1COc2c(N3CCN(C)CC3)c(F)cc3c(=O)c(C(=O)O)cn1c23 (stereo not shown) [Ofloxacin] | 70% | 14 | – | 1 to 32 µg/mL (≈ 2.77 to 88.6 µM) | – |
| CC1(C)S[C@@H]2[C@H](NC(=O)[C@H](N)c3ccccc3)C(=O)N2[C@H]1C(=O)O [Ampicillin] | 100% | 20 | highly resistant | – | – |
| O=C(N[C@H](CO)[C@H](O)c1ccc([N+](=O)[O-])cc1)C(Cl)Cl [Chloramphenicol] | 100% | 20 | highly resistant | > 128 µg/mL | – |
| CN(C)[C@@H]1C(O)=C(C(N)=O)C(=O)[C@@]2(O)C(O)=C3C(=O)c4c(O)cccc4[C@@](C)(O)[C@H]3C[C@@H]12 [Tetracycline] | 100% | 20 | – | – | – |
